Results published in patent US6632794B1, “Insulin-like growth factor agonist molecules” (Genentech, Inc., priority 1997, dated 2003).
pIC50: −log10 of the molar value. Where two headings read alike, the source gives them in different places. Blank lines part the entries; values can stand above or below the molecule they belong to. Starred links: 1 amine or outer side, 2 acyl side, 3 side chain; linkers in the order of their positions; H or OH if unused. Positions of bridges follow the written chain, without caps; N, C: chain ends. Residues, ends and D or L forms follow the SMILES beside them. No end group written: not given here. Suc = O=C(CCC(=O)[*:2])[*:1]

Key:
[1] = target: T1, IGFBP-1 (Homo sapiens, UniProt P08833); experiment: BIAcore competition assay, IGFBP-1 binding to IGF-I; conditions: for IGF-I Inhibition IC50 (114)/IC50 (mut) / IGF-I Inhibition IC50 (116)/IC50 (mut): g3 bp1-01 selectants by BIAcore, higher = better; for IGF-I Inhibition IC50 (114)/IC50 (mut): relative to bp1-14; for IGF-I Inhibition IC50 (116)/IC50 (mut): relative to bp1-16
T1 construct: biotin (chemical label, EZ-LINK NHS-SS-Biotin)
T1 sequence (P08833 26-259): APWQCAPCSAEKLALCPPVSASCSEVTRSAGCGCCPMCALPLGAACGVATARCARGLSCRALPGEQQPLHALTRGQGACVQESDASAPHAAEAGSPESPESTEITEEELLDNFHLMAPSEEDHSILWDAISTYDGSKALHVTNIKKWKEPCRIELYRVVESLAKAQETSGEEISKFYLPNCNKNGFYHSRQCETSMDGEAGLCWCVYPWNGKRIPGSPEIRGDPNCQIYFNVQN
Protocol: Two series of synthetic peptide variants were generated to determine which side chains of the bp1-01 peptide might contribute directly to binding IGFBP-1. In the first series an alanine-scanning approach (Cunningham and Wells, Science, 244: 1081-1085 (1989)) was used to remove that portion of each side chain beyond the beta carbon. The contribution of these atoms to the free energy of binding of the peptide to IGFBP-1 was then assessed by measuring the potency (IC50) of the variant for inhibiting IGFBP-1 binding to IGF-I or IGF-II in a BIAcore™competition assay, analogous to that described for IGFBP-3 (see Example 7).
(§1) Substitutions at the N-terminus or C-terminus yielded affinity improvements. […] All of these peptides had similar or improved apparent affinity for IGFBP-1 as compared with bp1-01 and bp1-02 and are thus expected to increase the availability of IGF-I in an in vitro cell culture assay.

[2] = target: IGFBP-3 (Homo sapiens, UniProt P17936); experiment: BIAcore competition assay, IGFBP-3 binding to immobilized IGF-I; conditions: for IGF-I Inhibition IC50 (mut)/IC50 (wt): bp3-01-ox variants by BIAcore, wt = bp3-01-ox
Protocol: A. BIAcore™ Competition Assay (for IGFBP-3 Binders)
IGF-I was immobilized on a dextran chip for inhibition assays using a BIAcore™ 2000 surface-plasmon-resonance device (BIAcore, Inc., Piscataway, N.J.) to measure free binding protein. […] Serial dilutions of peptide were mixed with a constant concentration (40 nM) of IGFBP-3. After incubation for >1 hour at room temperature, an aliquot of 20 μL was injected at a flow rate of 20 μL/min over the IGF-I chip. Following the injection, a response reading was taken to measure the relative amount of IGFBP-3 bound to the IGF-I.

[3] = target: T1, IGFBP-1; experiment: Biotin-BP plate (ELISA) assay, biotinylated IGFBP-1 binding to IGF-I; conditions: C-terminal bp1-01 variants by ELISA
Protocol: 1. Biotin-BP Assay (for IGFBP-1 Binders)
For inhibition of IGFBP-1 binding, IGFBP-1 (as well as IGFBP-3 as a control) were biotinylated as described above. MAXISORP™plates were coated and blocked as described above, using 2 μg/mL IGF-I. In a separate plate, serial dilutions of peptide were premixed with a constant concentration (20 nM) of biotinylated IGFBP-1. After 20 min. at room temperature, the mixture was added to the IGF-I plate. The peptide/IGFBP mix was then removed and the plate was washed ten times with PBS buffer containing 0.05% TWEEN-20™ surfactant. Bound biotin-IGFBP-1 was then detected using streptavidin-conjugated horse radish peroxidase, and a chromogenic substrate.
A second series of peptides made use of non-natural amino acids to probe whether other structural features such as an added methyl group at the alpha carbon, or an isomer (D-alanine) could affect peptide binding to IGFBP-1.
as §1

[4] = system: dwarf rats; experiment: Long-term administration to GH-deficient dwarf (dw/dw) rats; type: in vivo, rat
Text: Young female dwarf rats (11-12 wk of age, 115-140 g) were bred by homozygous mating (Charles Rivers Laboratories) and delivered to the Genentech Animal House where they were housed five per cage on polystyrene chips and fed a standard animal chow and water ad libitum, and kept in a room of constant humidity and with controlled temperature and lighting. The animals were weighed, and based on uniformity of body weight, 37 of the animals were selected and randomized into treatment groups and cages to give six treatment groups of equal initial body weights (approximately 120 g).
The study consisted of six groups of rats with six or seven rats per group.
The mutant (Leu^24,Ala^31)hIGF-I and native sequence recombinant human IGF-I were administered by osmotic minipumps (ALZET 2001™, Alza, Palo Alto, Calif.) which were placed in a subcutaneous tunnel in the dorsal neck region while the rats were anesthetized with KETAMINE/XYLAZINE™ anesthesia. The pumps were filled with solutions so that the calculated daily dose was 120 μg per rat per day (1 mg/kg/day), assuming that the pump delivered as per the manufacturer's description (24 μl of solution per day).
Recombinant human GH (50 μg/day) was administered for eight days by twice daily sc injection, with each injection being of 25 μg in a volume of 100 μl.
Body weights were measured daily in the morning. After 8 days the animals were anesthetized using CO2 and exsanguinated by cardiac puncture. The remaining blood was allowed to clot and serum was separated and stored for further analysis.
(§2) Spleen, thymus, heart, liver, kidney, and perirenal fat were removed and weighed. The tibia was removed and fixed in neutral buffered formalin for histological measurement of epiphyseal plate width.
Serum chemistries were measured using a TECHNICON CHEM I PLUS™ analyzer. Serum insulin concentration was measured using an RIA kit supplied by Linco, Inc. To measure the IGF-I concentrations the serum was extracted using acid ethanol and the supernatant diluted to neutrality and assayed for IGF-I by RIA. The concentration of rat IGF-I in serum extract was measured by RIA using a kit from Diagnostic Systems Laboratories, Inc. Human IGF-I concentration was measured by RIA at Genentech, Inc.
Tibia were sectioned longitudinally, stained with TOLULENE BLUE™ stain and mounted on microscope slides. The tibial epiphyseal plate width was measured using an ocular micrometer attached to a microscope.
Data were analyzed statistically by analysis of variance using one-factor ANOVA followed by Duncan's Range Test.

[5] = system: hypophysectomized rats; experiment: Long-term administration to hypophysectomized rats; type: in vivo, rat; conditions: one week
Text: Young female SD rats were hypophysectomized at Taconic Laboratories and delivered several days later. The rats were then weighed frequently and those whose weight increased or decreased by more than 7 grams between 2 and 3 weeks following hypophysectomy were excluded from the study. Twenty-five rats were grouped randomly into five groups based on their body weight, and then randomly assigned to cages, with four rats per cage. The animals were allowed ad libitum access to food and water and housed in a room controlled for temperature and lighting.
1) Excipient pump, excipient injections;
2) (Leu^24,Ala^31)hIGF-I (10 μg/day, by SC minipump), excipient injections;
3) (Leu^24,Ala^31)hIGF-I (50 μg/day, by SC minipump), excipient injections;
4) Recombinant human GH (NUTROPIN™ brand from Genentech, Inc., 20 μg/day, by SC injection, two injections each of 10 μg/day), excipient minipump; or
5) (Leu^24,Ala^31)hIGF-I (50 μg/day, by SC minipump) plus recombinant human GH (20 μg/day, by SC injection, two injections each of 10 μg/day).
The rats were dosed for one week.
The mutant (Leu^24,Ala^31)hIGF-I was administered by osmotic minipumps (ALZET 2001™, Alza, Palo Alto, Calif.), which were placed in a subcutaneous tunnel in the dorsal neck region of the rats while they were anesthetized with KETAMINE™/XYLAZINE™ anesthesia. The pumps were filled with solutions so that the calculated daily dose was 50 μg or 10 μg, assuming that 24 μl of solution was delivered each day for one week.
Recombinant human GH was administered for one week by twice daily SC injections of 10 μg in 100 μl volume.
Body weights were measured daily in the morning. At the end of the week of dosing the animals were anesthetized via CO2 and exsanguinated via cardiac puncture. The remaining blood was allowed to clot and serum was separated and stored for further analysis.
as §2
Serum chemistries were measured on an automated Chem I analyzer. Serum insulin concentration was measured using an RIA Kit supplied by Linco, Inc. To measure the IGF-I concentrations the serum was extracted using acid ethanol and the supernatant diluted to neutrality and assayed for IGF-I by RIA.
Tibia were sectioned longitudinally, stained with Toluene Blue, and mounted on microscope slides. The tibial epiphyseal plate width was measured using an ocular micrometer attached to a microscope.
Data were analyzed statistically by analysis of variance using one factor and two factor ANOVA.

[6] = bp3-01-ox variants by BIAcore competition assay, read-out: IGF-I Inhibition IC50
[7] = serum at sacrifice, 8 days, Means ± SEM

Sequence of IGFBP-3 (P17936 28-291): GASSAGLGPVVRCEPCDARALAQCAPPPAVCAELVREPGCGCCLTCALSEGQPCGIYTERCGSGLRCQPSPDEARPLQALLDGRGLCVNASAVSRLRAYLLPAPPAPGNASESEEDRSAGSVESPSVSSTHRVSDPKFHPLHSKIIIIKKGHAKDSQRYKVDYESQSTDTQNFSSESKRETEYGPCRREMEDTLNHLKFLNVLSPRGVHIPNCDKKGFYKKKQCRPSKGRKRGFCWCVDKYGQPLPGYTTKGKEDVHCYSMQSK

IGF-I Inhibition IC50 (114)/IC50 (mut) [1]: 2.6
IGF-I Inhibition IC50 (116)/IC50 (mut) [1]: 12
Molecule: CC(C)C[C@@H]1NC(=O)[C@H](Cc2c[nH]c3ccccc23)NC(=O)[C@H](CCC(N)=O)NC(=O)[C@H](CC(C)C)NC(=O)[C@@H]2CCCN2C(=O)CNC(=O)[C@H](C)NC(=O)[C@H](CCCNC(=N)N)NC(=O)[C@@H](NC(=O)[C@@H](NC(=O)[C@H](CCCNC(=N)N)NC(=O)[C@H](C)NC(=O)[C@@H](N)CCC(=O)O)C(C)C)CSSC[C@@H](C(=O)N[C@@H](CCC(=O)O)C(=O)N[C@@H](CCCCN)C(=O)N[C@@H](Cc2ccc(O)cc2)C(=O)N[C@@H](Cc2ccccc2)C(N)=O)NC1=O [bp1-20] (H-EARVCRAGPLQWLCEKYF-NH2; disulfide 5-14)

affinity improvement compared with bp1-14 (18-mer) ([1]; IGFBP-1): 3 fold
IGF-I Inhibition IC50 (114)/IC50 (mut) [1]: 3.2
IGF-I Inhibition IC50 (116)/IC50 (mut) [1]: 15
Molecule: CC(C)C[C@@H]1NC(=O)[C@H](Cc2c[nH]c3ccccc23)NC(=O)[C@H](CCC(N)=O)NC(=O)[C@H](CC(C)C)NC(=O)[C@@H]2CCCN2C(=O)CNC(=O)[C@H](C)NC(=O)[C@H](CCCNC(=N)N)NC(=O)[C@@H](NC(=O)CNC(=O)[C@@H](NC(=O)[C@H](CCC(=O)O)NC(=O)[C@@H](N)CO)C(C)C)CSSC[C@@H](C(=O)N[C@@H](CCC(=O)O)C(=O)N[C@@H](CCCCN)C(=O)N[C@@H](Cc2ccc(O)cc2)C(=O)N[C@@H](Cc2ccccc2)C(=O)N[C@@H](CO)C(=O)N[C@H](C(=O)N[C@@H](Cc2ccc(O)cc2)C(N)=O)[C@@H](C)O)NC1=O [bp1-21A] (H-SEVGCRAGPLQWLCEKYFSTY-NH2; disulfide 5-14)

pIC50 [2, 6]: 6.18
IGF-I Inhibition IC50 (mut)/IC50 (wt) [2]: 0.33
Molecule: CC(=O)N[C@@H](CO)C(=O)N[C@@H](CCC(=O)O)C(=O)N[C@@H](CCC(=O)O)C(=O)N[C@H](C(=O)N[C@H]1CSSC[C@@H](C(=O)N[C@@H](CC(N)=O)C(N)=O)NC(=O)[C@H](CC(C)C)NC(=O)[C@H](Cc2ccc(O)cc2)NC(=O)[C@H](Cc2c[nH]c3ccccc23)NC(=O)[C@H](CCC(=O)O)NC(=O)[C@H](C)NC(=O)[C@H](C(C)C)NC(=O)[C@@H]2CCCN2C(=O)[C@H](Cc2c[nH]c3ccccc23)NC1=O)C(C)C [bp3-40] (Ac-SEEVCWPVAEWYLCN-NH2; disulfide 5-14 (inferred))

pIC50 [2, 6]: 5.40
IGF-I Inhibition IC50 (mut)/IC50 (wt) [2]: 2.0
Molecule: CC(C)C[C@@H]1NC(=O)[C@H](Cc2ccc(O)cc2)NC(=O)[C@H](Cc2c[nH]c3ccccc23)NC(=O)[C@H](CCC(=O)O)NC(=O)[C@H](C)NC(=O)[C@H](C(C)C)NC(=O)[C@@H]2CCCN2C(=O)[C@H](Cc2c[nH]c3ccccc23)NC(=O)[C@@H](NC(=O)[C@@H](NC(=O)[C@H](CCC(=O)O)NC(=O)[C@@H]2CCCN2C(=O)CN)[C@@H](C)O)CSSC[C@@H](C(=O)N[C@@H](CC(N)=O)C(=O)O)NC1=O [bp3-41] (H-GPETCWPVAEWYLCN-OH; disulfide 5-14; N-terminus and C-terminus assumed)

pIC50 ([2]; BIAcore competition, read-out: IC50, inhibition of IGFBP-3 binding to IGF-I): 4.70
Molecule: CC[C@H](C)[C@H](NC(=O)CCC(=O)O)C(=O)N1CCC[C@H]1C(=O)N[C@H](C(=O)N[C@@H](CO)C(=O)N1CCC[C@H]1C(=O)N[C@@H](CC(=O)O)C(=O)N[C@@H](Cc1c[nH]c2ccccc12)C(=O)N[C@@H](Cc1ccccc1)C(=O)N[C@H](C(=O)N[C@@H](CS)C(=O)N[C@@H](CCC(N)=O)C(N)=O)C(C)C)C(C)C [bp3-108] (Suc-IPVSPDWFVCQ-NH2)

IGF-I Inhibition IC50 (mut)/IC50 (wt) [3]: >1000
Molecule: CRAGPLQWLCE [bp1-04]

IGF-I Inhibition IC50 (mut)/IC50 (wt) [3]: >1000
Molecule: CRAGPLQWLCEK [bp1-17]

pIC50 [2, 6]: < 3.00
Molecule: WPVAEWYLCN [bp3-24]

Molecule: hGH: Recombinant human GH (NUTROPIN brand from Genentech, Inc.)
epiphyseal plate widths ([4]; 8 days): significantly (p<0.05) increased
body weight gain ([4]; Day 5, hGH 50 μg/d, IGF mutant 120 μg/day): 12.4 ± 0.9 g
AST [4, 7]: 123 ± 13 U/l
BUN [4, 7]: 15.6 ± 0.7 mg/dL
CK [4, 7]: 184 ± 29 u/l
Creatinine [4, 7]: 0.33 ± 0.02 mg/dL
Glucose [4, 7]: 192 ± 10 mg/dL
Insulin [4, 7]: 1.48 ± 0.29 ng/mL
body weight gain ([5]; IGF agonist 50 μg/day SC minipump, hGH 20 μg/day SC, or both): significant increase in body weight
absolute thymus weight ([5]; IGF agonist 50 μg/day, hGH 20 μg/day, or both): almost equal
absolute and relative heart weight ([5]; IGF agonist 10 and 50 μg, hGH 20 μg/day, or combination): slightly increased absolute heart weight and caused a fall in relative heart weight
absolute spleen weight ([5]; IGF mutant 10 and 50 μg/day, hGH 20 μg/day, or hGH plus 50 μg/day): greater than that to the IGF agonist
epiphyseal plate width ([5]; rhGH 20 μg/day): around 400 μm
